In ChEMBL document CHEMBL1201862, “PubChem BioAssay data set” (2004):
Calls of active or inactive are those of the source.

Legend:
Nonstructural protein 1 = Nonstructural protein 1 (Influenza A virus, UniProt Q194T2); format: functional, Influenza A virus (A/California/07/2009(H1N1))
[1] = target: T1, Peroxisome proliferator-activated receptor gamma (Homo sapiens, UniProt P37231); test: competitive ligand displacement at PPARg – biochemical, TR-FRET, LanthaScreen, PPARg partial agonist project, dose response (AID 504446)
T1 sequence (P37231 whole entry): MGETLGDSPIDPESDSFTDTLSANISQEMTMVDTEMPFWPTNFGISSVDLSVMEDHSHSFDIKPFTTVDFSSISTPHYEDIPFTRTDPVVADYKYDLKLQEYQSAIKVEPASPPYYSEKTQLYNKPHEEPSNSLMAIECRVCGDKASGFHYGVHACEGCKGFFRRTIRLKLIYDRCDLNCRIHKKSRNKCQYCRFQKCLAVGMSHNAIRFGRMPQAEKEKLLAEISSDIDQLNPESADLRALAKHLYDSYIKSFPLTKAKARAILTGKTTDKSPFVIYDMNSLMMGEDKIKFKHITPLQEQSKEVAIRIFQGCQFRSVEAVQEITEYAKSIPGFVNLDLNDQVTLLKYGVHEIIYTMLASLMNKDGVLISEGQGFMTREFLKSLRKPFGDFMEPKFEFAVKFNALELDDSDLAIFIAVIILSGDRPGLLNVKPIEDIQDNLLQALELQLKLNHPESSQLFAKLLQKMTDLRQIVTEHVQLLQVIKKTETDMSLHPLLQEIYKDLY

[2] = target: T1, Peroxisome proliferator-activated receptor gamma; test: competitive ligand displacement at PPARg – biochemical, fluorescence polarization, PolarScreen, PPARg partial agonist project, dose response (AID 504453)
[3] = target: T1, Peroxisome proliferator-activated receptor gamma; test: PPARg transcriptional activation, reporter cells – cell-based, luminescence, assay provider, dose response (AID 504447); format: functional
[4] = target: Voltage-dependent T-type calcium channel subunit alpha-1H (Homo sapiens, UniProt O95180); test: human CACNA1H calcium influx blockade – cell-based, synthetic library set 1, calcium flux (AID 493022); format: functional
[5] = target: G-protein coupled receptor 55 (Homo sapiens, UniProt Q9Y2T6); test: inhibition of LPI-stimulated GPR55 beta-arrestin translocation – imaging, U2OS, beta-arrestin-GFP, LPI agonist, primary screen (AID 2013); format: functional;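 note: antagonist potency measured as reduced agonist-driven arrestin aggregation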
Hexokinase = Hexokinase (Trypanosoma brucei, UniProt Q38C41); test: Confirmation assay for inhibitors of Trypanosoma brucei hexokinase 1-Analogue-first series. [Related pubchem assays (depositor defined):AID1430, AID1632, AID2516, AID2560, AID2579, AID2600, AID449725, AID492951]; format: functional
Hexokinase-1 = Hexokinase-1 (Homo sapiens, UniProt P19367); test: HK1 enzyme activation by HKDC1 hits – biochemical, selectivity assay for HKDC1 activator project, dose response (AID 504762); format: functional
Hexokinase HKDC1 = Hexokinase HKDC1 (Homo sapiens, UniProt Q2TB90); test: activation of HKDC1 glucose phosphorylation – biochemical, W721R variant, dose response (AID 504730); format: functional
[6] = target: T2, Kappa-type opioid receptor (Homo sapiens, UniProt P41145); format: functional
[7] = target: T3, Neuropeptides B/W receptor type 1 (Homo sapiens, UniProt P48145); test: Fluorescence-based dose response cell-based high throughput screening assay to identify antagonists of the G-protein coupled receptor 7 (GPR7). [Related pubchem assays: 1952 (Screening assay (GPR7 antagonists).), 1880 (Summary AID.)]; format: functional
T3 sequence (P48145 whole entry): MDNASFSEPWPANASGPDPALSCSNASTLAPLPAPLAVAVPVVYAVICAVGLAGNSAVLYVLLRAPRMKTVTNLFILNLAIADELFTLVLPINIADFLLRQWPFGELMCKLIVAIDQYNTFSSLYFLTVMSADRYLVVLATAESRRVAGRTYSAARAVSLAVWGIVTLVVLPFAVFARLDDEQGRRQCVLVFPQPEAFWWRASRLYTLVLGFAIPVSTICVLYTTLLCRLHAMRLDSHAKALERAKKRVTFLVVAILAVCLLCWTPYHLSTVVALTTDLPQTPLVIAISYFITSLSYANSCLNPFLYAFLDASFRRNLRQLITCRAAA

[8] = target: T4, Heat shock factor protein 1 (Mus musculus, UniProt P38532); test: enhancement of HSF1-driven luciferase signal – cell-based, NIH3T3, luminescence, dose retest, confirmation (AID 435004); format: functional;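 note: stress induced by proteasome inhibitor MG132 added 30 min after compound; luciferase reporter driven by HSF1 response element in NIH3T3 cells; actives raise luminescence as potentiators of the MG132 stress response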
T4 sequence (P38532 whole entry): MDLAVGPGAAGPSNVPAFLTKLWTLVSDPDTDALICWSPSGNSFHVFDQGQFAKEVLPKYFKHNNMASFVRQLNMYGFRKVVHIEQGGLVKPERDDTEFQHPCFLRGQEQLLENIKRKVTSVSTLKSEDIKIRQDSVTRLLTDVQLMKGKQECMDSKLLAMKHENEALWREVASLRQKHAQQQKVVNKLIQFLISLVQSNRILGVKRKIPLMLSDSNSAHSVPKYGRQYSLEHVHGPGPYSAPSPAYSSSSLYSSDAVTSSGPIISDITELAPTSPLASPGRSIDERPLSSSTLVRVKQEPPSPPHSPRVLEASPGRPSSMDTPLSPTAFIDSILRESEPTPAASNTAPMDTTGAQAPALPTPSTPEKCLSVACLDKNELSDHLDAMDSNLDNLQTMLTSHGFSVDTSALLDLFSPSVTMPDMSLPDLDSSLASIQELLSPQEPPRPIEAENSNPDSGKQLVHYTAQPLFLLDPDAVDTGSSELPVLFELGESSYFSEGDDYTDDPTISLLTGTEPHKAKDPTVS

[9] = target: Melanin-concentrating hormone receptor 1 (Homo sapiens, UniProt Q99705); test: Fluorescence-based counterscreen for antagonists of the G-protein coupled receptor 7 (GPR7): cell-based high throughput dose response assay to identify antagonists of the melanin-concentrating hormone receptor 1 (MCHR1).; format: functional
[10] = target: T5, Delta-type opioid receptor (Homo sapiens, UniProt P41143); test: HTS Image-Based Screen for Antagonists of the DOR Receptor. [Related pubchem assays (depositor defined):AID1777, AID1785, AID1786, AID2133]; format: functional
[11] = target: T2, Kappa-type opioid receptor; format: functional; remark: listed apart in the source
Mu-type opioid receptor = Mu-type opioid receptor (Homo sapiens, UniProt P35372); test: HTS Image-Based Screen for Agonists of the MOR Receptor. [Related pubchem assays (depositor defined):AID1777, AID1785, AID1786, AID2133]; format: functional;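 note: imaging of beta-arrestin GFP recruitment into spots after receptor activation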
[12] = target: T5, Delta-type opioid receptor; test: HTS Image-Based Screen for Agonists of the DOR Receptor. [Related pubchem assays (depositor defined):AID1777, AID1786, AID2133]; format: functional

T5 sequence (P41143 whole entry): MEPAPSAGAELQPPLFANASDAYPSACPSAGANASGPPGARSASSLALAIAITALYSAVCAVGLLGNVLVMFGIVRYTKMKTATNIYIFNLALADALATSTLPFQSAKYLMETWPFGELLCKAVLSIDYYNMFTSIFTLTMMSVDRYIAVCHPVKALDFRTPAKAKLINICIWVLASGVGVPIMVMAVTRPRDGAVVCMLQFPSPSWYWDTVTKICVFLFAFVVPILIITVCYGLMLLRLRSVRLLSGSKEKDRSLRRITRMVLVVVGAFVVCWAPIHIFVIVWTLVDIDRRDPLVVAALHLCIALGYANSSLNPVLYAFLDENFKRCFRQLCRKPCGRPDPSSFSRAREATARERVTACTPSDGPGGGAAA
T2 sequence (P41145 whole entry): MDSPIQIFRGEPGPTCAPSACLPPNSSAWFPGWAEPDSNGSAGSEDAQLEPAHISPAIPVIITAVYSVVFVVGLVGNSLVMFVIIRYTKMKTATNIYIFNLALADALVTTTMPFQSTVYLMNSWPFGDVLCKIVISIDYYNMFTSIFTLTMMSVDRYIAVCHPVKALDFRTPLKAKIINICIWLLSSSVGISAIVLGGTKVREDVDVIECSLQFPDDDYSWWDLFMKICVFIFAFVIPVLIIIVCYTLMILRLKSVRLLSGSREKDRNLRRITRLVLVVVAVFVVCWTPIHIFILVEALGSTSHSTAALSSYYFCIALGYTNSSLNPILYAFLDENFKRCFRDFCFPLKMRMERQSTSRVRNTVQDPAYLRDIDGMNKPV
Chain of Nonstructural protein 1 (Q194T2 whole entry): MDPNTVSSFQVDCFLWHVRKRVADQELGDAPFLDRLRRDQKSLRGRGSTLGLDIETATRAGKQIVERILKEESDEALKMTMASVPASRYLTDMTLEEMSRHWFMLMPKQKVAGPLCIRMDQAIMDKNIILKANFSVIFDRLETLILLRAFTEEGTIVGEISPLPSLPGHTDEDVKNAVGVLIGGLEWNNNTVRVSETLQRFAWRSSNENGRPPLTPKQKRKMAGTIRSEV
Chain of G-protein coupled receptor 55 (Q9Y2T6 whole entry): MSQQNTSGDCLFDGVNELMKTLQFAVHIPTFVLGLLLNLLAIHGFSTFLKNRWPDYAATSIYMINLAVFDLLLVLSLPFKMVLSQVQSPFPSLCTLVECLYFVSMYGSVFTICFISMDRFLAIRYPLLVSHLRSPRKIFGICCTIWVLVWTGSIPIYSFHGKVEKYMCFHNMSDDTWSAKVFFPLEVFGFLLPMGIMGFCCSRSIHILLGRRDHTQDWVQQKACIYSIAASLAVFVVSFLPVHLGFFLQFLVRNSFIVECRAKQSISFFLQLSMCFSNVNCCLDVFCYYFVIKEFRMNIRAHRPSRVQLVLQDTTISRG
Chain of Hexokinase HKDC1 (Q2TB90 whole entry): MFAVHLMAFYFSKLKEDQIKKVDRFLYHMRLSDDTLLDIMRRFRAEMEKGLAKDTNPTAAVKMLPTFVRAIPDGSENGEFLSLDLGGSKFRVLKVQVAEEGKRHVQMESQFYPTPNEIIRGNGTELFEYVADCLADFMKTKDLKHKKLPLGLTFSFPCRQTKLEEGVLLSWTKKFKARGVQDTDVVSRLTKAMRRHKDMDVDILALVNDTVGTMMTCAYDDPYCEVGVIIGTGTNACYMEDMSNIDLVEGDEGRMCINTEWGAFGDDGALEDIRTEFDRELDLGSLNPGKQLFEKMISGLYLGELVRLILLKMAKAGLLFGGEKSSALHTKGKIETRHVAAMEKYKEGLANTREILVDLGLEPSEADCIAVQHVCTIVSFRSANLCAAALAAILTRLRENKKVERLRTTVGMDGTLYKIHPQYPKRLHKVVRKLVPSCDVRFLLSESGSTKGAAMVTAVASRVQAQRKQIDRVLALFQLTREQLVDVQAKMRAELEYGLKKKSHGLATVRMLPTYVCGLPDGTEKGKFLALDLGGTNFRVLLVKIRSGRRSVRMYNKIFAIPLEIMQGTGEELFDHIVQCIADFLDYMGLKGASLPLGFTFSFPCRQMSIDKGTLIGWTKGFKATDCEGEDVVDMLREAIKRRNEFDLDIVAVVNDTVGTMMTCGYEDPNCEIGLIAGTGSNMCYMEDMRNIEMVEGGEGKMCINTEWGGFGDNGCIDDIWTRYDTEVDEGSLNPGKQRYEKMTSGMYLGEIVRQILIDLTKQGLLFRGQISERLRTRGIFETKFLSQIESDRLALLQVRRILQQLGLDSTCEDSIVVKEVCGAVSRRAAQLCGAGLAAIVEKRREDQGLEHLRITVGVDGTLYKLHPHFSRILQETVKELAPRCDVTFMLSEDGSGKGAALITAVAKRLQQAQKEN
Chain of Mu-type opioid receptor (P35372 whole entry): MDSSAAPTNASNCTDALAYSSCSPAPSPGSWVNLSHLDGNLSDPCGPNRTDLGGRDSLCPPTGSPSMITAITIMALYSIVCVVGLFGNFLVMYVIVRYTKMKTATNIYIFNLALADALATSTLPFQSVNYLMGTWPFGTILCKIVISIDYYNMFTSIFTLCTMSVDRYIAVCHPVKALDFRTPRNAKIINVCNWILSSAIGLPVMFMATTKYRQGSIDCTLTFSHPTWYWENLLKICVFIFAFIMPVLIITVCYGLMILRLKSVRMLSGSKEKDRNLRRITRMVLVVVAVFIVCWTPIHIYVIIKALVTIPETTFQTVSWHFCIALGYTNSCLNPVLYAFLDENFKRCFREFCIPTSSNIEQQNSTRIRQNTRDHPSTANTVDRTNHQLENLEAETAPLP
Chain of Melanin-concentrating hormone receptor 1 (Q99705 whole entry): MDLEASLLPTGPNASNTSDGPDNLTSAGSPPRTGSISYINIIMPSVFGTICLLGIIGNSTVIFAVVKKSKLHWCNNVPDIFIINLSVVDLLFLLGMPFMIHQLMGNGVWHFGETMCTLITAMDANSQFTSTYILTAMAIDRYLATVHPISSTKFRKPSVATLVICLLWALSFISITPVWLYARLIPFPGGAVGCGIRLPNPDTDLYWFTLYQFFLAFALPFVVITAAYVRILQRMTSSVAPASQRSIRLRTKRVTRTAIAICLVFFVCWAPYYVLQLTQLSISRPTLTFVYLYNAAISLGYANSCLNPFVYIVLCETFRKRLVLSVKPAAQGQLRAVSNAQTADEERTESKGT
Chain of Hexokinase-1 (P19367 whole entry): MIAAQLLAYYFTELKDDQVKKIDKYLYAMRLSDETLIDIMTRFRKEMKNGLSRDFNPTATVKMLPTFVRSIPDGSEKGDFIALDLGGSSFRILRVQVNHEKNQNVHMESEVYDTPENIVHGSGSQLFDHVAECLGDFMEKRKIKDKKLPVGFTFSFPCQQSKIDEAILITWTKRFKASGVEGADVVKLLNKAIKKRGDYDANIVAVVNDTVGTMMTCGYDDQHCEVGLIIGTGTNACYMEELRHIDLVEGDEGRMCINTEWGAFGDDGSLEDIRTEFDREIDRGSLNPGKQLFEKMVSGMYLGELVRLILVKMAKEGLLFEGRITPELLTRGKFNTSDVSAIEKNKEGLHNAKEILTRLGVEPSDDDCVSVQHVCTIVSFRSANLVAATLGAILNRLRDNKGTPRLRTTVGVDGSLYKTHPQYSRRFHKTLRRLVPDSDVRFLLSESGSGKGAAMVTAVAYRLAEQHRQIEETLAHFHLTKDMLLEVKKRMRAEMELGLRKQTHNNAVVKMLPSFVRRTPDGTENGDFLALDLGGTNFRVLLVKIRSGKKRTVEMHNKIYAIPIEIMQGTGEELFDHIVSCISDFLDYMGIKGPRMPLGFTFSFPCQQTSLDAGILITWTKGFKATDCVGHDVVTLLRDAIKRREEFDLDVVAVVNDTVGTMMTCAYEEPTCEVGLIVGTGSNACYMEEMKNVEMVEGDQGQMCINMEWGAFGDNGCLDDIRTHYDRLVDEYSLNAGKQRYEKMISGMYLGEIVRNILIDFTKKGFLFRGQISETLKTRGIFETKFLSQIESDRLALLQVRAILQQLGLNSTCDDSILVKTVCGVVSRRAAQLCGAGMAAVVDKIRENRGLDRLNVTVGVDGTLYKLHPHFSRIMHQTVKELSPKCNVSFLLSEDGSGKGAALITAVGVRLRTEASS
Chain of Hexokinase (Q38C41 whole entry): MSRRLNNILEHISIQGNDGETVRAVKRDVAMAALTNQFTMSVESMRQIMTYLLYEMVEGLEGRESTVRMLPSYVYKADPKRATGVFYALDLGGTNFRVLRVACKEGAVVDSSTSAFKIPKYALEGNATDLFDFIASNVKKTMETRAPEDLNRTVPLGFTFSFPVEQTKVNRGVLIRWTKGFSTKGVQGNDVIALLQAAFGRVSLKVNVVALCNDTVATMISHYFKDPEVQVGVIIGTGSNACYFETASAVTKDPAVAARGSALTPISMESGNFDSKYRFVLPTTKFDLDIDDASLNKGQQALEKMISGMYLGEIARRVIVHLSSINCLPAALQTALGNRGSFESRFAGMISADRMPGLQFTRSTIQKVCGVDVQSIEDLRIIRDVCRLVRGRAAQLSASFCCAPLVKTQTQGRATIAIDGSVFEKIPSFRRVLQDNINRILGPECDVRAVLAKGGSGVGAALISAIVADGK

With `Nc1[nH]n(-c2ccccc2)c(=O)c1N=Nc1ccc2c(c1)OCCO2` the IC50 (Nonstructural protein 1) was 28.8 µM (active).
For `CCn1cnc2c1c(=O)n(Cc1cccc([N+](=O)[O-])c1)c(=O)n2Cc1ccccc1`, the IC50 [1] was 0.6 µM (active), the IC50 [2] was 0.173 µM (active) and the EC50 [3] was 0.181 µM (active).
With `O=C(COc1ccccc1Cl)Nc1nnc(-c2ccc3ccccc3c2)o1` the EC50 [4] was 4.8 µM (active).
For `C[C@H](NC(=O)c1nc[nH]c1C(=O)Nc1ccc(CNC(=O)OC(C)(C)C)cc1)C(=O)OC(C)(C)C`, the IC50 [5] was 2.55 µM (active).
With `Cc1ccccc1N1Cc2ccccc2C1=O` the IC50 (Hexokinase) was > 25 µM (inactive).
With `CCOC(=O)c1c(C)[nH]c(C2=NN=C(Nc3ccc(OCC)cc3)SC2)c1C` the EC50 (Hexokinase-1) was 21.1 µM (inactive) and the EC50 (Hexokinase HKDC1) was 19.4 µM (active).
With `O=C(c1ccccn1)N(Cc1ccco1)C1(C(=O)NC2CCCC2)CCCCC1` the EC50 [6] was 14.6 µM, the IC50 [7] was > 43.8 µM (not active) and the EC50 [8] was > 260 µM (inactive). For the same molecule, the IC50 [9] was > 43.8 µM (not active), the IC50 [10] was > 32 µM (inactive) and the EC50 [11] was 12.3 µM. The EC50 (Mu-type opioid receptor) was > 32 µM (inactive) and the EC50 [12] was > 32 µM (inactive).
